These results are taken from US20070259927A1, “Remedy for Diabetes” (Takeda Pharmaceutical Company Limited, priority 2004, published 2007).

Holding throughout (type): in vivo
The subject of assay [1] is db/db mouse. Nature of the assay: Experimental Example 1: db/db mouse, powder diet for 3 weeks, pioglitazone and compound A alone or combined. The following applies: db/db mice, in powder diet 3 weeks, mean (n=8)±standard deviation; for plasma insulin level / plasma glucose level / plasma insulin/plasma glucose value: day 21; for plasma insulin level / pancreatic insulin content: pioglitazone 0.01(w/w)%, compound A 0.03(w/w)% (½ fumarate); for plasma glucose level: pioglitazone hydrochloride 0.01(w/w)% as pioglitazone, ½ fumarate of compound A 0.03(w/w)% as compound A; for plasma insulin/plasma glucose value: plasma insulin level divided by plasma glucose level; for pancreatic insulin content: pancreas removed day 23. The text has this:
First of all, db/db mice (32 mice) were divided into 4 groups of A to D (8 mice in each group), and a powder diet (trade name: CE-2, Clea Japan, Inc., hereinafter the same) was given to group A (control group), a powder diet containing pioglitazone hydrochloride (0.01(w/w) % as pioglitazone) was given to group B, a powder diet containing ½ fumarate of compound A (0.03(w/w) % as compound A) was given to group C, and a powder diet containing pioglitazone hydrochloride (0.01(w/w) % as pioglitazone) and ½ fumarate of compound A (0.03(w/w) % as compound A) was given to group D, for 3 consecutive weeks.
In addition, a powder diet was given to db/+m mice for 3 consecutive weeks, and the mice were used as group E (normal group).
In the above-mentioned groups A to E, blood samples were collected from mice on day 21 from the start of the powder diet administration, and plasma glucose level and plasma insulin level were measured. On day 23 from the start of the powder diet administration, the pancreas was removed from the mice, and the pancreatic insulin content was measured.
The plasma glucose level was measured by an enzyme method using L type Wako Glu2 (trade name, Wako Pure Chemical Industries, Ltd.).
In addition, the plasma insulin level was measured by a radioimmunoassay (trade name, ShionoRIA insulin), and the plasma insulin level was divided by the plasma glucose level to determine the plasma insulin/plasma glucose value.
The pancreatic insulin content was measured as follows.
First, the mouse pancreas was disrupted in its 10 times weight of 75% ethanol (containing 0.15 M hydrochloric acid). The obtained disrupted solution was left standing overnight under the shading conditions at 4·^□C, and centrifuged at 15000 rpm for 5 min. The obtained supernatant was appropriately diluted with PBS(−) (phosphate-buffered saline) containing 0.1% BSA (bovine serum albumin). The insulin content of the diluted solution was measured in the same manner as in the above-mentioned plasma insulin level, and the insulin content per pancreatic tissue weight was calculated.
The results are shown in [Table 1] to [Table 4]. The values in the tables show mean (n=8)±standard deviation.

The subject of assay [2] is db/db mouse. The assay can be described thus: Experimental Example 2: db/db mouse, powder diet for 5 weeks, pioglitazone and vildagliptin alone or combined. The note with it: db/db mice, in powder diet 5 weeks, mean (n=8)±standard deviation; for pancreatic insulin content: pancreas removed day 37. The text has this: First of all, db/db mice (32 mice) were divided into 4 groups of F to I (8 mice in each group), and
a powder diet (trade name: CE-2, Clea Japan, Inc., hereinafter the same) was given to group F (control group), a powder diet containing pioglitazone hydrochloride (0.01 (w/w) % as pioglitazone) was given to group G,
a powder diet containing pioglitazone hydrochloride
In addition, a powder diet was given to db/+m mice for 5 consecutive weeks, and the mice were used as group J (normal group).
In the above-mentioned groups F to I, blood samples were collected from mice on day 35 from the start of the powder diet administration, and plasma glucose level and plasma insulin level were measured. On day 37 from the start of the powder diet administration, the pancreas was removed from the mice, and the pancreatic insulin content was measured.
The plasma glucose level, plasma insulin level, plasma insulin/plasma glucose value, and the pancreatic insulin content were measured in the same manner as in Experimental Example 1.
The results are shown in [Table 5] to [Table 8]. The values in the tables show mean (n=8)±standard deviation.

The test system of assay [3] is db/db mouse. The assay can be described thus: Experimental Example 3: db/db mouse, powder diet for 4 weeks, pioglitazone and sitagliptin alone or combined. The following applies: db/db mice, in powder diet 4 weeks, mean (n=8)±standard deviation; for plasma insulin level / plasma glucose level / plasma insulin/plasma glucose value: day 28; for plasma insulin level / pancreatic insulin content: pioglitazone 0.01(w/w)%, sitagliptin 0.03(w/w)%; for plasma glucose level: pioglitazone hydrochloride 0.01(w/w)% as pioglitazone, sitagliptin hydrochloride 0.03(w/w)% as sitagliptin; for plasma insulin/plasma glucose value: plasma insulin level divided by plasma glucose level; for pancreatic insulin content: pancreas removed day 29. The text has this: First of all, db/db mice (32 mice) were divided into 4 groups of […] mice in each group), and a powder diet (trade name: CE-2, Clea Japan, Inc., hereinafter the same) was given to group K (control group), a powder diet containing pioglitazone hydrochloride (0.01(w/w) % as pioglitazone) was given to group L, a powder diet containing sitagliptin hydrochloride (0.03(w/w) % as sitagliptin) was given to group M, and a powder diet containing pioglitazone hydrochloride (0.01(w/w) % as pioglitazone) and sitagliptin hydrochloride (0.03(w/w) % as sitagliptin) was given to group N, for 4 consecutive weeks. In addition, a powder diet was given to db/+m mice for 4 consecutive weeks, and the mice were used as group 0 (normal group). In the above-mentioned groups K to N, blood samples were collected from mice on day 28 from the start of the powder diet administration, and plasma glucose level and plasma insulin level were measured. […] The results are shown in [Table 9] to [Table 12]. The values in the tables show mean (n=8)±standard deviation.

The mark [4] stands for this setting: pioglitazone 0.01(w/w)%, vildagliptin 0.03(w/w)%.

Each structure is given as a SMILES string.

Turning to `Cc1ccc(-c2c(CN)c(CC(C)C)nc(C)c2C(=O)O)cc1` [compound A, 5-(aminomethyl)-6-isobutyl-2-methyl-4-(4-methylphenyl)nicotinic acid], in the assay with db/db mouse [1], the plasma insulin level amounted to 135.5 ± 115.4 μU/mL, the plasma glucose level was 502.0 ± 54.3 mg/dL, the “plasma insulin/plasma glucose value” is on record as 29.0 ± 28.4 μU/mg and the pancreatic insulin content turned out to be 918.4 ± 328.6 μU/mg tissue.
In the case of `CCc1ccc(CCOc2ccc(CC3SC(=O)NC3=O)cc2)nc1` (stereo not drawn) [pioglitazone], the plasma insulin level in the assay with db/db mouse [1] is reported as 289.2 ± 261.8 μU/mL; with db/db mouse [2] (day 35, pioglitazone 0.01(w/w)%, vildagliptin 0.03(w/w)%) it was 200.2 ± 78.0 μU/mL; in the assay on db/db mouse [3] it was 739.5 ± 472.8 μU/mL. The plasma glucose level is 411.0 ± 54.4 mg/dL with db/db mouse [1]; 348.5 ± 97.4 mg/dL in the assay on db/db mouse [2] (day 35, pioglitazone hydrochloride 0.01(w/w)% as pioglitazone, vildagliptin 0.03(w/w)%); 341.0 ± 100.6 mg/dL with db/db mouse [3]. For the same molecule, the “plasma insulin/plasma glucose value” in the assay on db/db mouse [1] came to 72.9 ± 64.5 μU/mg; with db/db mouse [2] (day 35, plasma insulin level divided by plasma glucose level), 63.9 ± 35.9 μU/mg; with db/db mouse [3] it was 261.7 ± 217.9 μU/mg. Besides, the pancreatic insulin content in the assay on db/db mouse [1] stood at 2314.2 ± 1285.4 μU/mg tissue; with db/db mouse [2] (setting [4]), 834.7 ± 275.3 μU/mg tissue; in the assay with db/db mouse [3], 1117.2 ± 479.7 μU/mg tissue.
Take `N[C@@H](CC(=O)N1CCn2c(nnc2C(F)(F)F)C1)Cc1cc(F)c(F)cc1F` [sitagliptin]: in the assay on db/db mouse [3], the plasma insulin level turned out to be 103.1 ± 47.2 μU/mL, the plasma glucose level came out at 492.3 ± 38.3 mg/dL, the “plasma insulin/plasma glucose value” was found to be 21.6 ± 11.3 μU/mg and the pancreatic insulin content is on record as 331.1 ± 79.6 μU/mg tissue.
On to `N#C[C@@H]1CCCN1C(=O)CNC12CC3CC(CC(O)(C3)C1)C2` [vildagliptin, (2S)-1-{[(3-hydroxy-1-adamantyl)amino]acetyl}-2-cyano-pyrrolidine], for which the pancreatic insulin content in the assay on db/db mouse [2] (setting [4]) stood at 559.2 ± 169.2 μU/mg tissue.
